pIC50: −log10 of the molar value.

We go through 3 compounds from BindingDB's records for doi:10.1021/jm00003a001 (Glaxo Research Institute, 1995).

For the test, the target named is DNA topoisomerase 1 (Bos taurus). Description: Inhibition of topoisomerase I activity was determined in vitro by using the cleavable complex assay(calf thymus).
`CC[C@@]1(O)C(=O)OCc2c1cc1n(c2=O)Cc2c-1nc1cc3c(cc1c2CCl)OCCO3` [15-chloromethyl-8-ethyl-8-hydroxy-(8S)-2,3,8,9,12,14-hexahydro-11H-[1,4]dioxino[2,3-g]pyrano[3',4':6,7]indolizino[1,2-b]quinoline-9,12-dione]: the pIC50 was 7.96.

In turn, `CC[C@@]1(O)C(=O)OCc2c1cc1n(c2=O)Cc2c-1nc1cc3c(cc1c2CCl)OCO3` [14-chloromethyl-7-ethyl-7-hydroxy-(7S)-7,8,11,13-tetrahydro-10H-[1,3]dioxolo[4,5-g]pyrano[3',4':6,7]indolizino[1,2-b]quinoline-8,11-dione] gave a pIC50 of 7.82.

Compound `CC[C@@]1(O)C(=O)OCc2c1cc1n(c2=O)Cc2c-1nc1cc3c(cc1c2CN1CCN(C)CC1)OCCO3` [8-ethyl-8-hydroxy-15-(4-methylhexahydro-1-pyrazinylmethyl)-(8S)-2,3,8,9,12,14-hexahydro-11H-[1,4]dioxino[2,3-g]pyrano[3',4':6,7]indolizino[1,2-b]quinoline-9,12-dione with trifluoroaceticacid] had a pIC50 of 6.38.

Broadly, the pIC50 is the IC50 on a negative log10 scale, so that one unit is a factor of ten.
